Assay results as given in the supplement of paper PMC11061612.

Assays:
Assay in all cases: combination Emax (second highest fraction inhibited in the dose matrix, 72 h); higher = more inhibition; extreme values may be limits of the assay
[1] = test system: JHH-4 (Hepatocellular Carcinoma)
Procedure, shortened: (§1)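 Cell lines grown in DMEM/F12 or RPMI with 10% FBS were plated in 1536-well plates and held 24 hours at 37°C, 5% CO2 before 72 hours of exposure to two-drug dose matrices, with DMSO typically at 0.2%. CellTiter-Glo 2.0 luminescence gave viability, which was converted to inhibition. Vehicle wells were set to 0 and blank wells to 1. Combination Emax is the second-highest inhibition in the matrix, and Bliss excess is the observed combination effect minus the expected EA + EB − EA·EB, where EA and EB are the single-agent effects.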

[2] = test system: SK-GT-4 (Esophageal Adenocarcinoma)
Procedure, shortened: as §1

[3] = test system: HCC1187 (Breast Carcinoma)
Procedure, shortened: as §1

M059J (Glioblastoma) = test system: M059J (Glioblastoma)
Procedure, shortened: as §1

[4] = test system: SNU-398 (Hepatocellular Carcinoma)
Procedure, shortened: as §1

[5] = test system: CHSA8926 (Chondrosarcoma)
Procedure, shortened: as §1

[6] = test system: SU-DHL-5 (B-Cell Non-Hodgkin's Lymphoma)
Procedure, shortened: as §1

[7] = test system: NCCIT (Other Solid Carcinomas)
Procedure, shortened: as §1

[8] = test system: CW-2 (Colorectal Carcinoma)
Procedure, shortened: as §1

[9] = test system: H9 (T-Cell Non-Hodgkin's Lymphoma)
Procedure, shortened: as §1

[10] = test system: KY821 (Acute Myeloid Leukemia)
Procedure, shortened: as §1

[11] = test system: ST486 (Burkitt's Lymphoma)
Procedure, shortened: as §1

[12] = test system: T-T (Esophageal Squamous Cell Carcinoma)
Procedure, shortened: as §1

[13] = test system: DAN-G (Pancreatic Carcinoma)
Procedure, shortened: as §1

RD (Rhabdomyosarcoma) = test system: RD (Rhabdomyosarcoma)
Procedure, shortened: as §1

[14] = test system: NCI-H520 (Squamous Cell Lung Carcinoma)
Procedure, shortened: as §1

[15] = test system: NCI-H526 (Small Cell Lung Carcinoma)
Procedure, shortened: as §1

[16] = test system: VMRC-RCZ (Kidney Carcinoma)
Procedure, shortened: as §1

[17] = test system: DMS-114 (Small Cell Lung Carcinoma)
Procedure, shortened: as §1

SMILES | combination Emax [1] | combination Emax [2] | combination Emax [3] | combination Emax (M059J (Glioblastoma)) | combination Emax [4] | combination Emax [5] | combination Emax [6] | combination Emax [7] | combination Emax [8] | combination Emax [9] | combination Emax [10] | combination Emax [11] | combination Emax [12] | combination Emax [13] | combination Emax (RD (Rhabdomyosarcoma)) | combination Emax [14] | combination Emax [15] | combination Emax [16] | combination Emax [17]
NC1(C(=O)N[C@@H](CCO)c2ccc(Cl)cc2)CCN(c2ncnc3[nH]ccc23)CC1 [Capivasertib] + CC(C)n1c(=O)n(C)c2cnc3cc(F)c(-c4ccc(OCCCN5CCCCC5)nc4)cc3c21 [AZD1390] (first compound max 10 µM, 7x7, partner max 0.3 µM) | 0.178 | 0.506 | 0.296 | 0.512 | 0.25 | 0.379 | 1 | 0.54 | 0.274 | 0.78 | 0.547 | 0.215 | 0.282 | 0.292 | 0.295 | 0.699 | 0.282 | 0.372 | 0.442
CC(=O)c1c(C)c2cnc(Nc3ccc(N4CCNCC4)cn3)nc2n(C2CCCC2)c1=O [Palbociclib] + Cc1c2c(nn1C)CSCc1cc(n(C)n1)CSc1cc(c3ccccc3c1)OCCCc1c(C(=O)O)n(C)c3c-2c(Cl)ccc13 [AZD5991] (first compound max 10 µM, 7x7, partner max 1 µM) | 0.397 | 0.305 | 1 | 0.191 | 0.944 | 0.289 | 1 | 0.809 | 0.451 | 0.742 | 1 | 0.832 | 0.799 | 0.222 | 0.317 | 0.638 | 0.391 | 0.194 | 0.49
CS(=O)(=O)CCNCc1ccc(-c2ccc3ncnc(Nc4ccc(OCc5cccc(F)c5)c(Cl)c4)c3c2)o1 [Lapatinib] + C[C@@H](Oc1cc(-c2cnn(C3CCNCC3)c2)cnc1N)c1c(Cl)ccc(F)c1Cl [Crizotinib] (first compound max 10 µM, 7x7, partner max 10 µM) | 0.546 | 0.82 | 0.715 | 0.801 | 0.77 | 0.928 | 1 | 0.599 | 0.708 | 0.983 | 0.986 | 0.942 | 0.938 | 0.991 | 0.891 | 0.659 | 0.732 | 0.365 | 0.893
NC1(C(=O)N[C@@H](CCO)c2ccc(Cl)cc2)CCN(c2ncnc3[nH]ccc23)CC1 [Capivasertib] + Cn1cnc2c(F)c(Nc3ccc(Br)cc3Cl)c(C(=O)NOCCO)cc21 [Selumetinib] (first compound max 10 µM, 7x7, partner max 10 µM) | 0.663 | 0.767 | 0.296 | 0.415 | 0.472 | 0.48 | 1 | 0.55 | 0.482 | 1 | 0.891 | 0.559 | 0.429 | 0.65 | 0.633 | 0.548 | 0.249 | 0.388 | 0.456
CS(=O)(=O)CCNCc1ccc(-c2ccc3ncnc(Nc4ccc(OCc5cccc(F)c5)c(Cl)c4)c3c2)o1 [Lapatinib] + NC1(c2ccc(-c3nc4ccn5c(=O)[nH]nc5c4cc3-c3ccccc3)cc2)CCC1 [MK-2206] (first compound max 10 µM, 7x7, partner max 10 µM) |  | 0.7 |  | 0.756 |  |  |  | 0.883 | 0.611 | 0.94 | 0.969 | 0.908 | 0.928 |  |  | 0.922 | 0.864 | 0.408 | 0.893
Cc1nc(Nc2ncc(C(=O)Nc3c(C)cccc3Cl)s2)cc(N2CCN(CCO)CC2)n1 [Dasatinib] + CC(=O)Nc1cccc(-n2c(=O)n(C3CC3)c(=O)c3c(Nc4ccc(I)cc4F)n(C)c(=O)c(C)c32)c1 [Trametinib] (first compound max 2 µM, 7x7, partner max 1 µM) | 1 | 0.791 | 0.137 | 0.492 | 0.501 | 0.823 | 1 | 0.366 | 0.551 | 0.892 | 0.691 | 0.611 | 0.5 | 0.962 | 0.769 | 0.233 | 0.0355 | 0.454 | 0.326
NC1(C(=O)N[C@@H](CCO)c2ccc(Cl)cc2)CCN(c2ncnc3[nH]ccc23)CC1 [Capivasertib] + CCN(CCO)CCCOc1ccc2c(Nc3cc(CC(=O)Nc4cccc(F)c4)[nH]n3)ncnc2c1 [AZD2811] (first compound max 10 µM, 7x7, partner max 1 µM) | 0.226 | 0.621 | 0.833 | 0.517 | 0.542 | 0.46 | 1 | 0.624 | 0.288 | 1 | 0.613 | 0.834 | 0.331 | 0.43 | 0.349 | 0.688 | 0.588 | 0.461 | 0.456
CC(=O)c1c(C)c2cnc(Nc3ccc(N4CCNCC4)cn3)nc2n(C2CCCC2)c1=O [Palbociclib] + Cn1cnc2c(F)c(Nc3ccc(Br)cc3Cl)c(C(=O)NOCCO)cc21 [Selumetinib] (first compound max 10 µM, 7x7, partner max 10 µM) | 0.59 | 0.566 | 0.129 | 0.179 | 0.376 | 0.178 | 1 | 0.276 | 0.451 | 0.956 | 0.861 | 0.79 | 0.46 | 0.43 | 0.569 | 0.679 | 0.0977 | 0.115 | 0.264
CC(=O)c1c(C)c2cnc(Nc3ccc(N4CCNCC4)cn3)nc2n(C2CCCC2)c1=O [Palbociclib] + CC1(C)CCC(CN2CCN(c3ccc(C(=O)NS(=O)(=O)c4ccc(NCC5CCOCC5)c([N+](=O)[O-])c4)c(Oc4cnc5[nH]ccc5c4)c3)CC2)=C(c2ccc(Cl)cc2)C1 [Venetoclax] (first compound max 10 µM, 7x7, partner max 1 µM) | 0.328 | 0.216 | 0.198 | 0.0491 | 0.326 | 0.188 | 1 | 0.279 | 0.336 | 0.626 | 1 | 0.581 | 0.242 | 0.178 | 0.331 | 0.628 | 0.71 | 0.105 | 0.209
NC1(C(=O)N[C@@H](CCO)c2ccc(Cl)cc2)CCN(c2ncnc3[nH]ccc23)CC1 [Capivasertib] + COc1nnc2ccc(N3CCC(c4ccc(OCCN5CCN(C)C(=O)[C@H]5C)cc4)CC3)nn12 [AZD5153] (first compound max 10 µM, 7x7, partner max 1 µM) | 0.324 | 0.758 | 0.309 | 0.682 | 0.565 | 0.48 | 1 | 0.873 | 0.559 | 1 | 1 | 0.91 | 0.527 | 0.466 | 0.683 | 0.806 | 0.983 | 0.487 | 0.529
NC1(C(=O)N[C@@H](CCO)c2ccc(Cl)cc2)CCN(c2ncnc3[nH]ccc23)CC1 [Capivasertib] + CC(=O)c1c(C)c2cnc(Nc3ccc(N4CCNCC4)cn3)nc2n(C2CCCC2)c1=O [Palbociclib] (first compound max 10 µM, 7x7, partner max 10 µM) | 0.466 | 0.588 | 0.257 | 0.338 | 0.472 | 0.48 | 1 | 0.537 | 0.445 | 0.985 | 0.757 | 0.549 | 0.344 | 0.355 | 0.463 | 0.717 | 0.15 | 0.401 | 0.284
NC1(C(=O)N[C@@H](CCO)c2ccc(Cl)cc2)CCN(c2ncnc3[nH]ccc23)CC1 [Capivasertib] + C[C@@H]1COCCN1C2=NC(=NC(=C2)C3(CC3)[S@](=N)(=O)C)C4=C5C=CNC5=NC=C4 [AZD6738] (first compound max 10 µM, 7x7, partner max 10 µM) | 0.309 | 0.614 | 0.51 | 0.622 | 0.752 | 0.54 | 1 | 0.66 | 0.542 | 1 | 1 | 0.881 | 0.389 | 0.721 | 0.402 | 0.711 | 0.779 | 0.549 | 0.623
CCc1c2c(nc3ccc(O)cc13)-c1cc3c(c(=O)n1C2)COC(=O)[C@]3(O)CC [SN-38] + O=C(c1cc(Cc2n[nH]c(=O)c3ccccc23)ccc1F)N1CCN(C(=O)C2CC2)CC1 [Olaparib] (first compound max 0.3 µM, 7x7, partner max 10 µM) |  | 0.4 | 0.467 | 0.987 | 0.255 | 0.452 | 1 | 0.274 | 0.604 | 1 | 0.998 | 0.702 | 0.835 |  |  | 0.834 | 1 | 0.281 | 0.491
